Reference: ChEMBL document CHEMBL5291721, “A preclinical secondary pharmacology resource illuminates target-adverse drug reaction associations of marketed drugs” (Nat Commun, 2023)

Legend:
[1] = biological target: T1, Peroxisome proliferator-activated receptor gamma (Homo sapiens, UniProt P37231); assay type: functional
T1 sequence (P37231 whole entry): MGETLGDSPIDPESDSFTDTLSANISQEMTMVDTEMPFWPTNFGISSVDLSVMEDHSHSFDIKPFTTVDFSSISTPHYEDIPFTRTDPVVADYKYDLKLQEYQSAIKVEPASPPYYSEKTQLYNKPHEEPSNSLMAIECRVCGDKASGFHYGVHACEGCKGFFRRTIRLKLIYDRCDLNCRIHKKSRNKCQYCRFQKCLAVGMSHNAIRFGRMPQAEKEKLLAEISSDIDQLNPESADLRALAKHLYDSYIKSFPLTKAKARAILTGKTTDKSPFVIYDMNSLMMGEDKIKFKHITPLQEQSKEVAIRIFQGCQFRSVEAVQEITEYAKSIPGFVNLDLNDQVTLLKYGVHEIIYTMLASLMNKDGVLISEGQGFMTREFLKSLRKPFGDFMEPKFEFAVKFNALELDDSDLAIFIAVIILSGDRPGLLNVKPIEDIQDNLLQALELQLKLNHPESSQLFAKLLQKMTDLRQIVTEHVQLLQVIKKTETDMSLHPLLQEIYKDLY

[2] = biological target: Epidermal growth factor receptor (Homo sapiens, UniProt P00533); assay type: functional
Chain of Epidermal growth factor receptor (P00533 whole entry): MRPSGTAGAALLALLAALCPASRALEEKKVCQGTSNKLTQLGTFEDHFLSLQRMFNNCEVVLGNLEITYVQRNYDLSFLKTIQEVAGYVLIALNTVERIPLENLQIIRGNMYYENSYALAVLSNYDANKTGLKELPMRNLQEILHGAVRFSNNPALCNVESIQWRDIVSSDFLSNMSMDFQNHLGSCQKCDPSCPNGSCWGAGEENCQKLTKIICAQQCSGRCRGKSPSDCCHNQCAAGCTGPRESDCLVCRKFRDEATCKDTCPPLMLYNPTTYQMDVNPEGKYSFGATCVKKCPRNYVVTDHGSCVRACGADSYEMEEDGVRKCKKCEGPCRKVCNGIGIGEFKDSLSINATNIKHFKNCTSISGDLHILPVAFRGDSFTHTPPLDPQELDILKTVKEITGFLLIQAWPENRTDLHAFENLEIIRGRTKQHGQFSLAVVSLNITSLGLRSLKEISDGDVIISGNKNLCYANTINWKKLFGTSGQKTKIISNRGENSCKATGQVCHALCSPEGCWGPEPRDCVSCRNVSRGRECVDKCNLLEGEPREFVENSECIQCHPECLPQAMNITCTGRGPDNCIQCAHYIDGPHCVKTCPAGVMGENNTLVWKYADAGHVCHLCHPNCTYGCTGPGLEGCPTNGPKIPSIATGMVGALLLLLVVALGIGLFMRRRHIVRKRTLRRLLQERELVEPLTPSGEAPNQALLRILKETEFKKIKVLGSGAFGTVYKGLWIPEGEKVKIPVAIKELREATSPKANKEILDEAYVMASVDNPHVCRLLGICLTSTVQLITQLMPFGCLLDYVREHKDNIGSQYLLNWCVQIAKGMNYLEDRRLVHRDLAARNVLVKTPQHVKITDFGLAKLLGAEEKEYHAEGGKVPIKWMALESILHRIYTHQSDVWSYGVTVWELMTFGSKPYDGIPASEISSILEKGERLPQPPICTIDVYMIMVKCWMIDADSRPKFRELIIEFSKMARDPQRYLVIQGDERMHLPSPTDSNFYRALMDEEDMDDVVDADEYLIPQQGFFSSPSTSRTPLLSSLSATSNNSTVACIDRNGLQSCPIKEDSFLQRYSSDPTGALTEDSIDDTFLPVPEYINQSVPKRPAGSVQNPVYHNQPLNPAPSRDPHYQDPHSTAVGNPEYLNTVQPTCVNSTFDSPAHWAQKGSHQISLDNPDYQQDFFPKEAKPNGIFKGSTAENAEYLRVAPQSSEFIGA

[3] = biological target: Receptor tyrosine-protein kinase erbB-2 (Homo sapiens, UniProt P04626); assay type: functional
Estrogen receptor beta = Estrogen receptor beta (Homo sapiens, UniProt Q92731)
Chain of Estrogen receptor beta (Q92731 whole entry): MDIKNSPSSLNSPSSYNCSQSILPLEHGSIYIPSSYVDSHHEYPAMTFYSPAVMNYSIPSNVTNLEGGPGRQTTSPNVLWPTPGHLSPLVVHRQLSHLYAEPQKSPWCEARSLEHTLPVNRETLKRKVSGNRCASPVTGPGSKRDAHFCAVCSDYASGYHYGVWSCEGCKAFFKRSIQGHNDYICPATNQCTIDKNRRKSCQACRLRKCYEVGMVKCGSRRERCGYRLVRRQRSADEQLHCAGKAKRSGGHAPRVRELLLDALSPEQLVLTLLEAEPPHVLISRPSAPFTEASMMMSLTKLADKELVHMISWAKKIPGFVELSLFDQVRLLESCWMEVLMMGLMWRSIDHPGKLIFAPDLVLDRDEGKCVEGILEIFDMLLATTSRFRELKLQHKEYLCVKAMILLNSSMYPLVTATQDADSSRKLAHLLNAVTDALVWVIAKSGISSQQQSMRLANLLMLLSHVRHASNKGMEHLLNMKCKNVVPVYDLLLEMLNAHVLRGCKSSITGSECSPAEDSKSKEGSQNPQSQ

[4] = biological target: T2, Amine oxidase [flavin-containing] A (Homo sapiens, UniProt P21397); assay type: functional
T2 sequence (P21397 whole entry): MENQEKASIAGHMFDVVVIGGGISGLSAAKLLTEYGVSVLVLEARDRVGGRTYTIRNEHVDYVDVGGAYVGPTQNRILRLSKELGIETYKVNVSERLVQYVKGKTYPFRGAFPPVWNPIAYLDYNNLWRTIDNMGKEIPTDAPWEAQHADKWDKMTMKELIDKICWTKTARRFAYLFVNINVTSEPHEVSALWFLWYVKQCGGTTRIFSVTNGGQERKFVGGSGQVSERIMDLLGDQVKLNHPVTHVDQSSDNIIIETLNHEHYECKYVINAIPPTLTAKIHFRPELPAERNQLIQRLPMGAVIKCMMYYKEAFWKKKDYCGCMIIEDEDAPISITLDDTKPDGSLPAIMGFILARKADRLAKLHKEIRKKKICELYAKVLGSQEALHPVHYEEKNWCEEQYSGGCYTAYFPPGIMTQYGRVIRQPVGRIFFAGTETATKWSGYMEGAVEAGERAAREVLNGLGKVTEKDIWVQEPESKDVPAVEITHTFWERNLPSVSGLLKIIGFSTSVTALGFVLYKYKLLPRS

[5] = biological target: Vascular endothelial growth factor receptor 2 (Homo sapiens, UniProt P35968); assay type: functional
Thromboxane A2 receptor = biological target: T3, Thromboxane A2 receptor (Homo sapiens, UniProt P21731); assay type: functional, cell-based
T3 sequence (P21731 whole entry): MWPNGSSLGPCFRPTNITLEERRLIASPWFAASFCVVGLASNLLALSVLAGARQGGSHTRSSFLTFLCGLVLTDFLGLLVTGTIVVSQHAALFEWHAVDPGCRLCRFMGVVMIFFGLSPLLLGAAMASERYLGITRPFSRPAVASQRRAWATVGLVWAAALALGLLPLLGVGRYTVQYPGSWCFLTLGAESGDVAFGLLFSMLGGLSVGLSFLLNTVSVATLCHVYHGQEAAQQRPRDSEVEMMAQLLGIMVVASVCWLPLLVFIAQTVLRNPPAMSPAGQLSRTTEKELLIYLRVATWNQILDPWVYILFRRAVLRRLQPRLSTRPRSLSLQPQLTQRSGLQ

[6] = biological target: Sodium-dependent serotonin transporter (Homo sapiens, UniProt P31645)
Chain of Sodium-dependent serotonin transporter (P31645 whole entry): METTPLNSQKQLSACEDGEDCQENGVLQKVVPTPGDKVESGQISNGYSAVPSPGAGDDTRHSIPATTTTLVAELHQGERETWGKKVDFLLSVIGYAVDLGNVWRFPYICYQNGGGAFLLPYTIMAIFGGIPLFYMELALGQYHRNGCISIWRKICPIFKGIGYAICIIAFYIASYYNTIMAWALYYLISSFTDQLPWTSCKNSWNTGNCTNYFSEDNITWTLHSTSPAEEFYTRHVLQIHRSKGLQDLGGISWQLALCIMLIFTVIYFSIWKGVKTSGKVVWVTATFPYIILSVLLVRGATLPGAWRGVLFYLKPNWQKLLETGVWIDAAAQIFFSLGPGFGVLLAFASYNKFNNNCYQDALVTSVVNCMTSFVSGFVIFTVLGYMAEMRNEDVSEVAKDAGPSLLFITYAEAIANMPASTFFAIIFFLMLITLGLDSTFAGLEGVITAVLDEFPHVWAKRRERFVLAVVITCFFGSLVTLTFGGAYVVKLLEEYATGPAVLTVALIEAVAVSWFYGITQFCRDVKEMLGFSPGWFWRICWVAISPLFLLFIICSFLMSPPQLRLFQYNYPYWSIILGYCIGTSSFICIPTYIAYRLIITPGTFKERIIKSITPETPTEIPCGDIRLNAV

D(3) dopamine receptor = D(3) dopamine receptor (Homo sapiens, UniProt P35462)
Chain of D(3) dopamine receptor (P35462 whole entry): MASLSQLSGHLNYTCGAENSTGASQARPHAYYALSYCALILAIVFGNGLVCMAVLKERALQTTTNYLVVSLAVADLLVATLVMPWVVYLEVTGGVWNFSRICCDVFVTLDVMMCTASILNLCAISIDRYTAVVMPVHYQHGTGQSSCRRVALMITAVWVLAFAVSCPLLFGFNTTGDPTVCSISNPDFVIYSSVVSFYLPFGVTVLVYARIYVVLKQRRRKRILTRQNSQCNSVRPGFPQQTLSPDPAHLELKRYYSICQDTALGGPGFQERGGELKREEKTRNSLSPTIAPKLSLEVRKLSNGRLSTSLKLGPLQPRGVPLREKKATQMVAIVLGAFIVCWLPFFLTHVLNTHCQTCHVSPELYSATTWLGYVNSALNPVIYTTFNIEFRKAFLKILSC

[7] = biological target: 5-hydroxytryptamine receptor 2B (Homo sapiens, UniProt P41595); assay type: functional, cell-based
Chain of 5-hydroxytryptamine receptor 2B (P41595 whole entry): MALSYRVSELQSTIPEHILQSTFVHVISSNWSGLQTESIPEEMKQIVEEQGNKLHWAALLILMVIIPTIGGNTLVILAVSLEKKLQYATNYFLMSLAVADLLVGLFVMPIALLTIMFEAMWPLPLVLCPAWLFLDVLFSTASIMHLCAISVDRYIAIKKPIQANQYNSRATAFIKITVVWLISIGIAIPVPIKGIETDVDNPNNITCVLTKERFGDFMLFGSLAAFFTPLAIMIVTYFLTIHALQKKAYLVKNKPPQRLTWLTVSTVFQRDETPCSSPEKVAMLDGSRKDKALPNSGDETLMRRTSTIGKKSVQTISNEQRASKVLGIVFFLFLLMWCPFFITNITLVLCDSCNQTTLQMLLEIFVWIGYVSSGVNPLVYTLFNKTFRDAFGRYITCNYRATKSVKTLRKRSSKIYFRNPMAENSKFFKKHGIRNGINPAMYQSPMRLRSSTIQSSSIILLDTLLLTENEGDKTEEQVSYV

Mu-type opioid receptor = Mu-type opioid receptor (Homo sapiens, UniProt P35372)
Chain of Mu-type opioid receptor (P35372 whole entry): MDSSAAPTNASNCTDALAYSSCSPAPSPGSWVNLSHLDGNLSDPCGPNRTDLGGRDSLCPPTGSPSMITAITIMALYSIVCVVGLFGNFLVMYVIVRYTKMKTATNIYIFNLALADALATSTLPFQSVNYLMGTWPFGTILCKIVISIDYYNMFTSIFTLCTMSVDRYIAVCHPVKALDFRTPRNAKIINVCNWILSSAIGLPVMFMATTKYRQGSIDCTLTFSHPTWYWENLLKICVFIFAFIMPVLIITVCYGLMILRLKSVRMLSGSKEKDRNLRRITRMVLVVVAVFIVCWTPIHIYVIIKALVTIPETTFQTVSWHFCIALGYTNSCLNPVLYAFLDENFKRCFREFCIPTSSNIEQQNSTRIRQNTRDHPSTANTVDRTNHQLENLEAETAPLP

[8] = biological target: Prostaglandin G/H synthase 1 (Homo sapiens, UniProt P23219); assay type: functional
Chain of Prostaglandin G/H synthase 1 (P23219 whole entry): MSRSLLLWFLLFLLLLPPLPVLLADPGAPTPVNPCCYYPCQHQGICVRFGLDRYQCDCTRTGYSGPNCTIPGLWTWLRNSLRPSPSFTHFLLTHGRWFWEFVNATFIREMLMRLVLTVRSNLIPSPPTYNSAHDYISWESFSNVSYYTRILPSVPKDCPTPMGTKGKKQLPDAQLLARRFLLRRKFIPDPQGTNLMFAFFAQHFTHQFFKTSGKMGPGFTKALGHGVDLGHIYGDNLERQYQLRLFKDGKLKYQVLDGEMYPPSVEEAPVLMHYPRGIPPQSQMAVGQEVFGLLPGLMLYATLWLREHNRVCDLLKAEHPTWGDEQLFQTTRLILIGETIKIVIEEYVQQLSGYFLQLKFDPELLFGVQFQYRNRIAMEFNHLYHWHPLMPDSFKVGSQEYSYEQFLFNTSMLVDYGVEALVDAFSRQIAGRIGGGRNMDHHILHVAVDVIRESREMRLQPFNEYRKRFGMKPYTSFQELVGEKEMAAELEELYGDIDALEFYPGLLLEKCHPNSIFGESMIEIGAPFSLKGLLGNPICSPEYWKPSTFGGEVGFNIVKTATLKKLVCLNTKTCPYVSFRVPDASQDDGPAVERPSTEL

Histamine H1 receptor = Histamine H1 receptor (Homo sapiens, UniProt P35367); assay type: functional, cell-based
D(1A) dopamine receptor = D(1A) dopamine receptor (Homo sapiens, UniProt P21728); assay type: functional, cell-based
[9] = biological target: Hydroxycarboxylic acid receptor 2 (Homo sapiens, UniProt Q8TDS4)
Chain of Hydroxycarboxylic acid receptor 2 (Q8TDS4 whole entry): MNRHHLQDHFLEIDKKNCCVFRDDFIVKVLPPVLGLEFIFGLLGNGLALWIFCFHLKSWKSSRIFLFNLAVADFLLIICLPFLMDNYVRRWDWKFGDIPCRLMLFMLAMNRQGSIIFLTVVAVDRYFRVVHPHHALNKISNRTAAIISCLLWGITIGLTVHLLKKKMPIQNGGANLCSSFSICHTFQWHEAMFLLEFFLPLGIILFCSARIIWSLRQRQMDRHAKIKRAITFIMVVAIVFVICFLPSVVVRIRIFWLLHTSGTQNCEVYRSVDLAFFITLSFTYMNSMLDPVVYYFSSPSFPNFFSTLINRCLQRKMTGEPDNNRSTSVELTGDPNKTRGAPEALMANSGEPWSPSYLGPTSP

[10] = biological target: Gamma-aminobutyric acid receptor subunit alpha-1/alpha-2/beta-2/gamma-2 (Homo sapiens, UniProt P14867+P47870+P18507+P47869); assay type: functional, cell-based
Note: assay procedure not described here.

Brc1c(NC2=NCCN2)ccc2nccnc12 [BRIMONIDINE]
AC50 [1]: > 30 µM

CC(CC1c2ccccc2CCc2ccccc21)CN(C)C (stereo unspecified) [BUTRIPTYLINE]
AC50 [2]: > 30 µM | AC50 [3]: > 30 µM

Cc1c(OCC(F)(F)F)ccnc1C[S+]([O-])c1nc2ccccc2[nH]1 (stereo unspecified) [LANSOPRAZOLE]
AC50 (Estrogen receptor beta): > 30 µM

CO[C@]12C[C@@H](COC(=O)c3cncc(Br)c3)CN(C)[C@@H]1Cc1cn(C)c3cccc2c13 [NICERGOLINE]
AC50 [4]: > 30 µM | AC50 [5]: > 30 µM | AC50 (Thromboxane A2 receptor): 7.6 µM | AC50 [6]: 7.26 µM | AC50 (D(3) dopamine receptor): 0.641 µM | AC50 [7]: > 30 µM | AC50 (Mu-type opioid receptor): 2.38 µM | AC50 [8]: > 30 µM

NC(=O)CN1CC(O)CC1=O (stereo unspecified) [OXIRACETAM]
AC50 (Histamine H1 receptor): > 30 µM

Cc1cc(C(C)(C)C)c(O)c(C)c1CC1=NCCN1 [OXYMETAZOLINE]
AC50 (D(1A) dopamine receptor): > 30 µM

COc1cccc(C2(O)CCCCC2CN(C)C)c1 (stereo unspecified) [TRAMADOL]
AC50 [9]: > 10 µM

THIMEROSAL
AC50 [10]: > 30 µM
